Experiment [1] has as its target 5-hydroxytryptamine receptor 6 (Homo sapiens, UniProt P50406). Kind of experiment: GPCRScan assay: inhibition of 5-HT6. More on the design: radioligand conc. used [nm] 2.0 – 4.0, parental cells stable HEK.
Experiment [2] addresses T1, Alpha-2B adrenergic receptor (Homo sapiens, UniProt P18089).
T1 sequence (P18089 whole entry): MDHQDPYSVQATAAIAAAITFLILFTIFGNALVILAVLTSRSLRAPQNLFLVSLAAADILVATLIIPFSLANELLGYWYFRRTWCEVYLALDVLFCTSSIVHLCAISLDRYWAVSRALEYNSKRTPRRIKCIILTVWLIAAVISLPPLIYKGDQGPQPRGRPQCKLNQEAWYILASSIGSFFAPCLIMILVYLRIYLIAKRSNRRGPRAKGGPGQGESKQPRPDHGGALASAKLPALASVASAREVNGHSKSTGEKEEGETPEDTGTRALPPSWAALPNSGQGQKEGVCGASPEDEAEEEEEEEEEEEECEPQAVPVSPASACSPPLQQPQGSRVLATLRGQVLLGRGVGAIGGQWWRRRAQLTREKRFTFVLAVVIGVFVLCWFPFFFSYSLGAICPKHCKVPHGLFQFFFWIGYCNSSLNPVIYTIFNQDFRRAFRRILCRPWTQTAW
Briefly: Panlabs assay (ADRA2B). More on the design: compound concentration 10 uM.

Experiment [3] addresses Muscarinic acetylcholine receptor M3 (Homo sapiens) (UniProt P20309). The note with it: Compound concentration 10.0 uM.
For the next experiment, the species on record is Rattus norvegicus. Briefly: Glutamate, NMDA, Polyamine Eurofins-Panlabs radioligand binding assay. In kind it is protein-complex assay. More on the design: ligand concentration 2 nM. The note with it: Compound concentration 10.0 uM.
In experiment [4] the target is Alpha-2C adrenergic receptor (Homo sapiens, UniProt P18825). Briefly: GPCRScan assay: inhibition of Alpha2C. More on the design: radioligand conc. used [nm] 0.5 – 1.0, parental cells stable MDCK.
Chain of Alpha-2C adrenergic receptor (P18825 whole entry): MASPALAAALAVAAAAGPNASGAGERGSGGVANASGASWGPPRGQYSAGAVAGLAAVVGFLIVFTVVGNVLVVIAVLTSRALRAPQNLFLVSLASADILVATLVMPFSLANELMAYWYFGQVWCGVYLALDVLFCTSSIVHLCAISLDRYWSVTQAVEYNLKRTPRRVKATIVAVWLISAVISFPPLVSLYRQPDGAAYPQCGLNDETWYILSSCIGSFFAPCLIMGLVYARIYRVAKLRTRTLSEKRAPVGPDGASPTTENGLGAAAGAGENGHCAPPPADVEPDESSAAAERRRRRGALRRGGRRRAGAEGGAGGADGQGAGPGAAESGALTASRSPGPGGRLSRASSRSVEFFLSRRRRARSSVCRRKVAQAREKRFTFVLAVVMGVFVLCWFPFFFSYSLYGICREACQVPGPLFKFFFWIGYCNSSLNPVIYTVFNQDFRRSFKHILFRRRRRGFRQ
Experiment [5] has as its target T2, Alpha-2B adrenergic receptor (Homo sapiens) (UniProt P18089).
T2 sequence (whole entry): T1 sequence (P18089 whole entry)

We go through 2 molecules from ChEMBL document CHEMBL4507294, “Data for DCP probe MSD-CYP11B2” (2021).

Calls of active or inactive are those of the source. No cut-off for these calls is given here.

Chain of 5-hydroxytryptamine receptor 6 (P50406 whole entry): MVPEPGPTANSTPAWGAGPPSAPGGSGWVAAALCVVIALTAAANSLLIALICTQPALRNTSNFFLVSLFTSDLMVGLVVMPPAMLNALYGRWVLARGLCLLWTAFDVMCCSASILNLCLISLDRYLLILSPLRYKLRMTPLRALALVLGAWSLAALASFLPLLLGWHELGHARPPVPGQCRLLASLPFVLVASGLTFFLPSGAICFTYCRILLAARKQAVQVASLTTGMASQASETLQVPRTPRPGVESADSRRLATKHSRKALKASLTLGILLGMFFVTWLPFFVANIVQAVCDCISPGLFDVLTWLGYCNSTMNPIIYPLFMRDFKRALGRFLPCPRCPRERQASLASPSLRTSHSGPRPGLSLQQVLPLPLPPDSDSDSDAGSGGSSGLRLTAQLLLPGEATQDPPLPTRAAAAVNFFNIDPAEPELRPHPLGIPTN
Chain of Muscarinic acetylcholine receptor M3 (Homo sapiens) (P20309 whole entry, looked up): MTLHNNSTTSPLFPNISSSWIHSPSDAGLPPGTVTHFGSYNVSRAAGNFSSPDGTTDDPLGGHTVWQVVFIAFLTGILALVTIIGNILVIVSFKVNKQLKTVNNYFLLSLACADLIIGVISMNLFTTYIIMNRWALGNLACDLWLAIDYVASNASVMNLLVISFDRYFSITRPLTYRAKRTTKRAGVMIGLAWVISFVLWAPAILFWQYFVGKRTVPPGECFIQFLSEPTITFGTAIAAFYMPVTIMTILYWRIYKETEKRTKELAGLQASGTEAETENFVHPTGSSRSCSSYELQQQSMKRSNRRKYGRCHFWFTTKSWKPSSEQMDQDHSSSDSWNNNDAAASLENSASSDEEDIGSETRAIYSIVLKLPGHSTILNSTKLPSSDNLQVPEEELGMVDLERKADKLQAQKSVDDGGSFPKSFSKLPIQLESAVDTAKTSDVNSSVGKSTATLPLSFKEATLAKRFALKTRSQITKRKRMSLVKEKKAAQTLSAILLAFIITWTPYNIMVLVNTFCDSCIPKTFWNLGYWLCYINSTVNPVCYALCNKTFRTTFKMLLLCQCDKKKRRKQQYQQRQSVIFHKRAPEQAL

A word on the Ki: it is the equilibrium dissociation constant of an inhibitor or competing ligand from its target. As to `FC(F)(F)c1ccc2c(c1)nc(-c1cccnc1)n2C1CC1` [MSD-CYP11B2-Negative-control], in experiment [1], the Ki turned out to be 3.06 µM.

As usually defined, the IC50 is the concentration at which inhibition is half-maximal. As a reminder, the inhibition is the relative decrease from the control value, in per cent. On to `CC(C)(O)c1cncc(-c2nc3ccc(F)cc3n2C2CC2)c1` [MSD-CYP11B2], for which the IC50 in experiment [2] is 4.7 µM (active). In addition, the inhibition is 2% in experiment [3]; -3% in the experiment filed under Rattus norvegicus; 9% in experiment [5] (Compound concentration 0.1 uM); 20% in experiment [5] (Compound concentration 1.0 uM); 65% in experiment [5] (Compound concentration 10.0 uM). Besides, the Ki in experiment [4] was found to be 0.626 µM.
